The target in the assay is GABA receptor complex (GRC), [35S]-TBPS binding in rat brain cortical membranes. The experiment in a line: Steroid inhibition of [35S]-TBPS binding (radioligand displacement). The settings on record: 2 nM [35S]-TBPS, in the presence of 5 μM GABA, read-out: 35S-TBPS Radioligand Displacement (Control IC50). The protocol: TBPS binding assays using rat brain cortical membranes in the presence of 5 μM GABA has been described (Gee et al, J. Pharmacol. Exp. Ther. 1987, 241, 346-353; Hawkinson et al, Mol. Pharmacol. 1994, 46, 977-985).
Briefly, cortices are rapidly removed following decapitation of carbon dioxide-anesthetized Sprague-Dawley rats (200-250 g). The cortices are homogenized in 10 volumes of ice-cold 0.32 M sucrose using a glass/teflon homogenizer and centrifuged at 1500×g for 10 min at 4° C. The resultant supernatants are centrifuged at 10,000×g for 20 min at 4° C. to obtain the P2 pellets. The P2 pellets are resuspended in 200 mM NaCl/50 mM Na—K phosphate pH 7.4 buffer and centrifuged at 10,000×g for 10 min at 4 OC. This ishing procedure is repeated twice and the pellets are resuspended in 10 volumes of buffer. Aliquots (100 μL) of the membrane suspensions are incubated with 2 nM [^35S]-TBPS and 5 μL, aliquots of test drug dissolved in dimethyl sulfoxide (DMSO) (final 0.5%) in the presence of 5 μM GABA. The incubation is brought to a final volume of 1.0 mL with buffer. Nonspecific binding is determined in the presence of 2 μM unlabeled TBPS and ranged from 15 to 25%. Following a 90 min incubation at room temp, the assays are terminated by filtration through glass fiber filters (Schleicher and Schuell No. 32) using a cell harvester (Brandel) and rinsed three times with ice-cold buffer. Filter bound radioactivity is measured by liquid scintillation spectrometry. Non-linear curve fitting of the overall data for each drug averaged for each concentration is done using Prism (GraphPad). […] The concentration of test compound producing 50% inhibition (IC50) of specific binding and the maximal extent of inhibition (Imax) are determined for the individual experiments with the same model used for the overall data and then the means+SEM.s of the individual experiments are calculated.
Various compounds are or can be screened to determine their potential as modulators of [^35S]-TBPS binding in vitro. These assays are or can be performed in accordance with the above discussed procedures.
As for `CC(=O)OC1CC2(C)C(=CC#N)CCC2C2CCC3CC(O)CCC3C12` (centres unmarked) [Compound 11], the IC50 lay within 100 to 500 nM.
With `CO[C@H]1CC[C@H]2[C@@H]3CC[C@H]4C[C@H](O)CC[C@]4(COC(C)=O)[C@H]3CC[C@]12C` [Compound 13] the figure was 100 to 500 nM; with `CC(=O)O[C@H]1C[C@@H]2[C@H](CC[C@]3(C)[C@@H](C(=O)CO)CC[C@@H]23)[C@@]2(C)CC[C@@H](O)C[C@H]12` [Compound 9, (3R,5S,6S,8R,9S,10R,13S,14S,17S)-3-hydroxy-17-(2-hydroxyacetyl)-10,13-dimethyl-hexadecahydro-1H-cyclopenta[a]phenanthren-6-yl acetate], 100 to 500 nM.
With `C[C@]12C[C@H](OC(=O)c3ccccc3)[C@@H](O)C[C@@H]1CC[C@@H]1[C@@H]2CC[C@]2(C)[C@@H](C(=O)CO)CC[C@@H]12` [Compound 2, (2S,3S,5S,8R,9S,10S,13S,14S,17S)-3-hydroxy-17-(2-hydroxyacetyl)-10,13-dimethyl-hexadecahydro-1H-cyclopenta[a]phenanthren-2-yl benzoate] the figure was 100 to 500 nM.
The figure for `CC(=O)O[C@H]1C[C@]2(C)/C(=C\C#N)CC[C@H]2[C@@H]2CC[C@H]3C[C@H](O)CC[C@]3(C)[C@H]21` [Compound 4, (3R,5S,8S,9S,10S,11S,13S,14S,Z)-17-(cyanomethylene)-3-hydroxy-10,13-dimethyl-hexadecahydro-1H-cyclopenta[a]phenanthren-11-yl acetate] is 100 to 500 nM; for `CC(=O)O[C@H]1C[C@@]2(C)[C@@H](CC[C@@H]3[C@@H]2CC[C@]2(C)[C@@H](C(=O)CO)CC[C@@H]32)C[C@@H]1O` [Compound 6] it is 100 to 500 nM.
Regarding `CC(=O)OC[C@]12CC[C@@H](O)C[C@@H]1CC[C@@H]1[C@@H]2CC[C@]2(C)/C(=C\C#N)CC[C@@H]12` [Compound 5, ((3R,5S,8S,9S,10R,13S,14S,Z)-17-(cyanomethylene)-3-hydroxy-13-methyl-hexadecahydro-1H-cyclopenta[a]phenanthren-10-yl)methyl acetate], the IC50 lay in the range of 100 to 500 nM.
The figure for `CC(=O)O[C@H]1C[C@]2(C)[C@@H](C(=O)CO)CC[C@H]2[C@@H]2CC[C@H]3C[C@H](O)CC[C@]3(C)[C@H]21` [Compound 7, (3R,5S,8S,9S,10S,11S,13S,14S,17S)-3-hydroxy-17-(2-hydroxyacetyl)-10,13-dimethyl-hexadecahydro-1H-cyclopenta[a]phenanthren-11-yl acetate] is 100 to 500 nM; for `CC(=O)O[C@H]1C[C@@H]2[C@H](CC[C@]3(C)[C@@H](C(C)=O)CC[C@@H]23)[C@@]2(C)CC[C@@H](O)C[C@H]12` [Compound 8, (3R,5S,6S,8R,9S,10R,13S,14S,17S)-17-acetyl-3-hydroxy-10,13-dimethyl-hexadecahydro-1H-cyclopenta[a]phenanthren-6-yl acetate] it is 100 to 500 nM; for `CC(=O)O[C@H]1C[C@@H]2[C@H](CC[C@]3(C)/C(=C\C#N)CC[C@@H]23)[C@@]2(C)CC[C@@H](O)C[C@H]12` [Compound 3, (3R,5S,6S,8R,9S,10R,13S,14S,Z)-17-(cyanomethylene)-3-hydroxy-10,13-dimethyl-hexadecahydro-1H-cyclopenta[a]phenanthren-6-yl acetate] it is 100 to 500 nM.
In the case of `CC(=O)O[C@H]1C[C@@]2(C)[C@@H](CC[C@@H]3[C@@H]2CC[C@]2(C)/C(=C\C#N)CC[C@@H]32)C[C@@H]1O` [Compound 1, (2S,3S,5S,8R,9S,10S,13S,14S,Z)-17-(cyanomethylene)-3-hydroxy-10,13-dimethyl-hexadecahydro-1H-cyclopenta[a]phenanthren-2-yl acetate], the IC50 was 100 to 500 nM.

By IC50 is commonly meant the midpoint of a concentration-inhibition curve.

The values are drawn from patent publication US20150175651A1, “NEUROACTIVE STEROIDS, COMPOSITIONS, AND USES THEREOF” (SAGE THERAPEUTICS, INC., priority 2012, published 2015).
